# Test results reported in PubChem BioAssay AID488881 (Sanford-Burnham Center for Chemical Genomics, 2010).
# The source made the active and inactive calls.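 Rule for the calls: active = mean EC50 below 10 µM; inactive = the rest.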
# Target: Type-1 angiotensin II receptor (Homo sapiens) (UniProt P30556)
# Test: AGTR1 activation selectivity check – cell-based, CHO-K1 PathHunter, luminescence, selectivity assay for APJ agonist project, SAR follow-up (AID 488881)
# Conditions: CHO-K1 AGTR1 PathHunter beta-arrestin
# Chain of Type-1 angiotensin II receptor (Homo sapiens) (P30556 whole entry, looked up): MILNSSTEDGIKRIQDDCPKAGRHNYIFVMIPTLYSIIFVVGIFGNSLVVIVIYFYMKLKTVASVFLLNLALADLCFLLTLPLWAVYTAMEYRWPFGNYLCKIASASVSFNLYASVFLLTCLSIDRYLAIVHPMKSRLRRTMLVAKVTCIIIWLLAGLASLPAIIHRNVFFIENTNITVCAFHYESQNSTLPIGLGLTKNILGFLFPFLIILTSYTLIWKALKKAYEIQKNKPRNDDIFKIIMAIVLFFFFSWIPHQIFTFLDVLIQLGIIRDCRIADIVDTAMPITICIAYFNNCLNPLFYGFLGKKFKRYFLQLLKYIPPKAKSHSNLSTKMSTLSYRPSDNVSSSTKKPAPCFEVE
row,Compound,EC50
1,CCCSc1nc(O)c(CC)c(=O)n1C(C)CC (configuration not stated),> 79 µM (inactive)
2,CC1=CC(=O)C(C(C)C)=C/C1=N/OS(=O)(=O)c1ccccc1,> 79 µM (inactive)
3,CC1=CC(=NOS(=O)(=O)c2ccccc2)C=CC1=O,> 79 µM (inactive)
4,CCc1c(O)nc(SCc2ccccc2)n(C2CCCCC2)c1=O,> 79 µM (inactive)
5,O=S(=O)(Nc1nc(-c2ccccc2)cs1)c1ccc(Cl)cc1,> 79 µM (inactive)
6,CC1=CC(=O)C(C(C)C)=CC1=NOS(=O)(=O)c1ccccc1,> 79 µM (inactive)
7,C=CCn1c(SCc2ccccc2)nc(O)c(CC)c1=O,> 79 µM (inactive)
8,CC1=C/C(=N/OS(=O)(=O)c2ccc(C)cc2)C(C(C)C)=CC1=O,> 79 µM (inactive)
9,CCc1c(O)nc(SC(C)CC)n(C(C)CC)c1=O (configuration not stated),> 79 µM (inactive)
10,CC1=CC(=NOS(=O)(=O)c2ccccc2)C(C(C)C)=CC1=O,> 79 µM (inactive)
11,CC1=C/C(=N/OS(=O)(=O)c2ccccc2)C(C)=CC1=O,> 79 µM (inactive)
12,C=CCSc1nc(O)c(CC)c(=O)n1C(C)CC (configuration not stated),> 79 µM (inactive)
13,CCSc1nc(O)c(CC)c(=O)n1C(C)CC (configuration not stated),> 79 µM (inactive)
14,CCc1c(O)nc(SC)n(C2CCCCC2)c1=O,> 79 µM (inactive)
15,CC1=CC(=O)C=C/C1=N\OS(=O)(=O)c1ccc(C)cc1,> 79 µM (inactive)
16,Cc1ccc(S(=O)(=O)Nc2nc(-c3ccccc3)cs2)cc1,> 79 µM (inactive)
17,CCc1c(O)n(C2CCCCC2)c(=S)[nH]c1=O,> 79 µM (inactive)
18,Cc1ccc(S(=O)(=O)ON=C2C=CC(=O)C=C2)cc1,> 79 µM (inactive)
19,CC1=C/C(=N\OS(=O)(=O)c2ccc(Cl)cc2)C=CC1=O,> 79 µM (inactive)
20,C=CCSc1nc(O)c(CC)c(=O)n1-c1ccc(C)cc1,> 79 µM (inactive)
21,CC1=CC(=O)C=C(C)C1=NOS(=O)(=O)c1ccccc1,> 79 µM (inactive)

row,Compound,EC50
1,CCN1/C(=C/C(=O)c2sc(=S)n(CC)c2O)Sc2ccccc21,> 79 µM (inactive)
2,CCc1c(O)nc(SC)n(C(C)CC)c1=O (configuration not stated),> 79 µM (inactive)
3,CC1=CC(=NOS(=O)(=O)c2ccc(Cl)cc2)C=C(C)C1=O,> 79 µM (inactive)
4,CC1=C(C)C(=NOS(=O)(=O)c2ccc(C)cc2)C=CC1=O,> 79 µM (inactive)
5,CCN1/C(=C\C=C2/SC(=S)N(C)C2=O)Sc2ccccc21,> 79 µM (inactive)
6,CCSc1nc(O)c(CC)c(=O)n1C1CCCCC1,> 79 µM (inactive)
7,CCc1c(O)nc(SCc2ccccc2)n(C(C)CC)c1=O (configuration not stated),> 79 µM (inactive)
8,CC1=C/C(=N/OS(=O)(=O)c2ccc(C)cc2)C=CC1=O,> 79 µM (inactive)
9,CCCCSc1nnc(NC(=O)CSc2nc3ncccc3[nH]2)s1,> 79 µM (inactive)
10,COc1ccc(S(=O)(=O)O/N=C2\C=C(C(C)C)C(=O)C=C2C)cc1,> 79 µM (inactive)
11,CC1=C/C(=N\OS(=O)(=O)c2ccc(C)cc2)C(C)=CC1=O,> 79 µM (inactive)
12,COc1ccccc1-n1c(SCC(=O)c2ccccc2)nc(O)cc1=O,> 79 µM (inactive)
13,O=S(=O)(Nc1nc(-c2ccccc2)cs1)c1ccc(Br)cc1,> 79 µM (inactive)
14,COc1ccc(S(=O)(=O)ON=C2C=C(C)C(=O)C(C)=C2)cc1,> 79 µM (inactive)
15,Cc1cc(C)n2nc3nc(N4CCOCC4)nc(-c4ccccc4)c3c2n1,> 79 µM (inactive)
16,CC1=CC(=NOS(=O)(=O)c2ccccc2)C=C(C)C1=O,> 79 µM (inactive)
17,CN(C)CCSc1nc(O)c(-c2ccccc2)c(=O)n1-c1ccccc1,> 79 µM (inactive)
18,CSc1nc(=O)cc(N)n1-c1ccc(C)cc1,> 79 µM (inactive)
19,CC1=CC(=NOS(=O)(=O)c2ccc(C)cc2)C=C(C)C1=O,> 79 µM (inactive)
20,CCCCSc1nc(O)c(CC)c(=O)n1C1CCCCC1,> 79 µM (inactive)
21,C=CCSc1nc(O)c(CC)c(=O)n1C1CCCCC1,> 79 µM (inactive)
